In patent US20060141078A1, “Composition comprising a rice protein hydrolysate and an agent for increasing glycosaminoglycan synthesis” (L'OREAL, priority 2004, published 2006):

System: adipocytes
Assay: Hydrolysis of adipocyte triglycerides: release of non-esterified fatty acids (NEFA) into the medium (lipolysis)
Assay type: cell-based
Conditions: for % activity vs Control: untreated control = 100
Protocol: The adipocytes were isolated from an abdominal plasty and then incubated in the presence of collagenase, washed and taken up in test medium.
We then added the adipocyte suspension and the mixtures were incubated at 37° C. The NEFAs were assayed in the fractions of sub-adipocyte medium, after decantation. The assay was performed using an NEFA-C kit according to the manufacturer's instructions.
Two controls (a positive and a negative) of absence of interference of the product with the NEFA assay were performed.

Row | Compound | NEFA (Example 1, 1 μM) | % activity vs Control (Example 1, 1 μM) | NEFA (Example 2, 1 μM) | % activity vs Control (Example 2, 1 μM) | NEFA (Example 1, 1 mM) | % activity vs Control (Example 1, 1 mM) | NEFA (Example 2, 1 mM) | % activity vs Control (Example 2, 1 mM)
1 | CC(C)NCC(O)c1ccc(O)c(O)c1 (centres unmarked) [Isoproterenol, isoproterenol] | 472.3 µM | 600% | 613.3 µM | 1849% |  |  |  | 
2 | Cn1c(=O)c2[nH]cnc2n(C)c1=O [Theophylline, theophylline] |  |  |  |  | 496.3 µM | 630% | 626.3 µM | 1888%
